Experimental findings from a melting point compilation (Tetko et al.; mined from patent text by program, amines drawn as free bases though some values may be those of a salt) are described below.

One may read the melting point as the temperature of the solid-liquid transition. On to `CC1(c2ccc(F)cc2)OC(C=Cc2ccccn2)=CC1=O` (configuration not stated), for which the melting point lay within 70 to 72 °C.

`Fc1cc2c(c(OCCNCCCc3c[nH]c4ccc(F)cc34)c1)OCCC2` had a melting point of 137 to 138 °C.

`Cc1ccccc1C(CCC(=O)O)Oc1cc(OCc2cccnc2)ccc1C#N` (configuration not stated): the melting point lay in the range of 130 to 134 °C.

For the compound `O=C(O)COc1ccc(/C=C/C(=O)C(F)(F)F)cc1`, the melting point turned out to be 156 °C.

`C=CCOC1CC2C3CCC4=CC(=O)CCC4(C)C3(F)C(O)CC2(C)C1(O)C(=O)CO` (configuration not stated) registered a melting point of 189 to 191 °C.

As for `CSCCSc1c(O)cc(C)oc1=O`, the melting point lay in the range of 81 to 83 °C.

`Nc1nc(Cl)c2c(n1)CCCS2` returned a melting point of 196 to 198 °C.

Compound `O=S(CBr)c1ccc2c(c1)OCO2` (configuration not stated) displayed a melting point of 88 to 89 °C.

Compound `O[C@@H]1C=C[C@H](n2cnc3c(Cl)ncnc32)C1` (racemic) showed a melting point of 118 °C.

Regarding `Cn1nnnc1SCCCC(=O)c1ccc2ccccc2c1`, the melting point is 118 to 120 °C.

Consider `C[C@@H](n1cnc2ccc(Br)cc2c1=O)[C@](O)(Cn1cncn1)c1ccc(F)cc1F`, for which the melting point is 182 to 183 °C.

Take `CN(C)C1(c2ccccc2)CCC2(OCCc3c2[nH]c2ccccc32)C(F)C1` (configuration not stated): the melting point was in the range of 245 to 247 °C.

In turn, `COc1ccc(NC(=O)c2ccc3c(c2)C(C)(C)C(=O)N3)cc1` gave a melting point of 169 to 171 °C.

With `COc1cc(CC(C)(C)NC(=O)c2ccc(=O)n(-c3ccc4cc(C)ccc4n3)c2)cc2c1OC(C)(C)C2`, the melting point is 192 to 193 °C.

On to `CC(=O)OC1CSC(Oc2cncc(-c3c(C)n[nH]c3C)c2)C(OC(C)=O)C1OC(C)=O` (configuration not stated), for which the melting point turned out to be 95 °C.

Turning to `Fc1ccc(C#Cc2nccs2)cc1`, the melting point was 78 to 79 °C.

As to `Cc1[nH]cnc1CSCCO`, the melting point was in the range of 74 to 76 °C.

As to `COc1cc2nc(N3CCN(C(=O)C=Cc4cccc(C(F)(F)F)c4)CC3)nc(N)c2cc1OC`, the melting point lay in the range of 225 to 227 °C.

Consider `CCc1cc2c(cc1C(CC)SCC(=O)O)OCO2` (configuration not stated), for which the melting point fell in the range of 88 to 89 °C.

Regarding `Fc1cc(Cl)ccc1-n1nc2c(c1Cl)CSCC2`, the melting point was 97 to 99 °C.

`CCCCCCCCCCCCCC(=O)NC1CC(C)(C)N(CC#N)C(C)(C)C1` showed a melting point of 106 °C.

`O=Cc1cccn1-c1ccc(C(=O)O)cc1` came in with a melting point of 269 to 270 °C.

For `CC(C)(C)OC(=O)CNS(=O)(=O)c1ccc(N2CCC(NC[C@H](O)c3ccc(O)c(NS(C)(=O)=O)c3)CC2)cc1`, the melting point was 113 to 115 °C.

The compound `CCCCCC(CC(=O)Nc1cc(CBr)ccc1C(C)(C)C)c1cccc2c1OCO2` (configuration not stated) came in with a melting point of 119 to 120 °C.

Compound `COc1nccc(-c2c(-c3ccc(F)cc3)ncn2C2CCC(O)(CO)CC2)n1` (configuration not stated) came in with a melting point of 225 to 226 °C.

`N#Cc1ccc(-c2cc(N(Cc3ccc(O)cc3)n3cnnc3)ccc2C#N)cc1` showed a melting point of 221 to 223 °C.

`COC(=O)c1cc2c(I)cccc2cn1`: the melting point fell in the range of 165 to 167 °C.

`N#CC1(NCC2CCCCC2)CCN(Cc2ccccc2)CC1` came in with a melting point of 128 to 130 °C.

For `O=C1C=C(NC(=O)C(=O)c2cn(Cc3ccc(Cl)cc3)c3ccccc23)CO1`, the melting point was 253 to 255 °C.

`O=c1ccccn1[C@@H]1C[C@H](O)[C@@H](O)[C@H]1O` (racemic) showed a melting point of 138 to 140 °C.

`CNCC1COC2(CCN(c3nc4c(cc3F)C=C(C(=O)O)CN4c3ccc(F)cc3F)CC2)O1` (configuration not stated) registered a melting point of 188 to 193 °C.

Turning to `CCOC(C)=NOc1nc(C(F)(F)F)cc(=O)n1-c1cc(Oc2ccccc2[N+](=O)[O-])c(Cl)cc1F`, the melting point was in the range of 152 to 155 °C.

`C=C(OC(=O)c1ccc(C(C)(C)C)cc1)c1ccc(OC)cc1` displayed a melting point of 87 to 89 °C.

As for `CCOc1nn(Cc2ccnc(OCc3cn4c(-c5ccccc5)cccc4n3)c2)cc1CCC(=O)O`, the melting point lay in the range of 177 to 178 °C.

As for `CCN1C(=O)N(c2cc(OC)cc(OC)c2)Cc2cnc(SC)nc21`, the melting point is 134 to 136 °C.

In turn, `O[C@@H](CNC1CN(C(c2ccccc2)c2ccccc2)C1)COc1ccc(OCc2ccccc2)cc1` registered a melting point of 109 to 110 °C.

`Cc1ccc(S(=O)(=O)ON=C2CCCc3occ(C(=O)O)c32)cc1` registered a melting point of 155 to 165 °C.

With `N=C(NO)c1ccc2nc(N[C@@H]3CCc4ccccc43)ccc2c1`, the melting point came out at 236 °C.

Compound `CCCCCCCCCCCCCCC(F)CC(NC(C)=O)(C(=O)OCC)C(=O)OCC` (configuration not stated) showed a melting point of 71 to 73 °C.

The compound `CCc1nc2c(cnn2CC)c(NC2CCOCC2)c1CNC(=O)c1cccc(C(=O)NCc2ccc(Cl)c(-c3cccc(CN4CC(C)NC(C)C4)c3)c2)c1` (configuration not stated) had a melting point of 121 to 124 °C.

`COc1cccc(CO)c1OCc1ccccc1` had a melting point of 58 to 60 °C.

In the case of `C=CCSc1ccc(OCCO)nn1`, the melting point lay in the range of 38 to 40 °C.

In turn, `O=C1c2ccc(OCCOCCOCCO)cc2C(=O)c2ccc(OCCOCCOCCO)cc21` yielded a melting point of 110 °C.

In the case of `O=C(c1cc(C(F)(F)F)cc(C(F)(F)F)c1)N1CCC2(CC1)C(=O)NCN2c1ccccc1Cl`, the melting point lay within 157 to 159 °C.

For the compound `Cc1ccc2ncc3nc(C(F)(F)F)n(C)c3c2c1`, the melting point is 220 to 223 °C.

Take `COC(=O)c1sccc1S(=O)(=O)NC(=O)Nc1nc(C)nc(C)n1`: the melting point fell in the range of 158 to 178 °C.

Compound `CC(=O)NC(Cc1ccc(C)c(C)c1)C(=O)O` (racemic) registered a melting point of 136 to 139 °C.

As for `COC1=CC(=O)NCC1`, the melting point lay in the range of 115 to 117 °C.

`CCCCc1nc(CCCC)n(Cc2ccc(-c3ccccc3C(=O)O)cc2)n1` came in with a melting point of 134 to 135 °C.

In the case of `N#CCCNNC(=O)c1ccc(OCc2ccccc2)cc1`, the melting point was found to be 136 °C.

The compound `CC(c1cccnc1)N(c1ccc(F)cc1F)S(C)(=O)=O` (configuration not stated) came in with a melting point of 76 to 78 °C.

As for `O=[N+]([O-])c1cccc(Oc2nccnc2Cl)c1`, the melting point lay within 119 to 121 °C.

Compound `COc1ccc(C(=O)Oc2ccc(C(=O)O)cc2F)cc1C12CC3CC(CC(C3)C1)C2` gave a melting point of 258 to 260 °C.

Consider `CN(C(=O)CN1C(=O)C(NC(=O)Nc2cccc(C#N)c2)N=C(CN2CCCCC2)c2ccccc21)c1ccccc1` (configuration not stated), for which the melting point was 145 to 150 °C.

Regarding `O=C1C(Cc2ccccc2)SC(=S)N1c1nc2ccccc2s1` (configuration not stated), the melting point fell in the range of 187 to 189 °C.

Compound `CCSCc1ccc2[nH]c(NC(=O)OC)nc2c1` registered a melting point of 229 to 231 °C.

The compound `CCCCc1nc2c(N)nc3ccc(O)cc3c2n1CCCCNS(C)(=O)=O` came in with a melting point of 223 to 227 °C.

In turn, `COC1CN(c2ccc(NC(=O)OCc3ccccc3)cc2F)C1` gave a melting point of 95 to 96.5 °C.

In the case of `CC(=O)C(O)C1OC(n2cc(Br)c(=O)[nH]c2=O)CC1(O)C(C)=O` (configuration not stated), the melting point lay in the range of 116 to 120 °C.

Consider `Cc1cccc(C(=O)c2ccc(OCC(=O)O)c(Cl)c2Cl)c1`, for which the melting point was 173 to 175 °C.

`N#Cc1c(NCc2ccc(N)cc2)n[nH]c1N`: the melting point lay within 168 to 170 °C.

As for `O=C(N1CCCCC1)N1CC(Oc2cccc(C(F)(F)F)c2)C1`, the melting point was in the range of 50 to 52 °C.

Compound `Oc1nnc(O)c2c1CCCC2` displayed a melting point of 298 to 300 °C.

In turn, `Cc1cc(-c2nc3ccc(CCN4CCCC4)cc3c(=O)[nH]2)cc(C)n1` yielded a melting point of 212 to 213 °C.

In turn, `O=S(=O)(CC(F)(F)F)N(Cc1cccnc1)c1cccc(Oc2ccccc2O)c1` came in with a melting point of 57.5 to 60 °C.

As to `COc1cc(C(=O)O)ccc1CNC(=O)C1Cc2ccccc2N1S(=O)(=O)c1ccc(-c2cccc(C(F)(F)F)c2)cc1` (configuration not stated), the melting point fell in the range of 108 to 120 °C.

The compound `CN1c2cccc(CC(=O)O)c2Sc2c(C(N)C(=O)OCC3c4ccccc4-c4ccccc43)cccc21` (configuration not stated) had a melting point of 217 to 219 °C.

With `COC(=O)CCNc1cccc(CNC(=O)C2Cc3ccccc3N2S(=O)(=O)c2ccc(-c3cccc(C(F)(F)F)c3)cc2)c1` (configuration not stated), the melting point amounted to 57 °C.

The compound `COc1ccc([C@H](Sc2ccccc2NC(C)=O)[C@@H](O)C(=O)O)cc1` registered a melting point of 173 to 175 °C.

For `O=C(O)CCCOc1ccc(C23CC4CC(CC(C4)C2)C3)cc1`, the melting point was in the range of 170 to 172 °C.

As for `CC(C)(C)c1cc(C2N(c3ccccc3)CCN2c2ccccc2)cc(C(C)(C)C)c1O`, the melting point was found to be 144 °C.

`CC(C)(C)c1cc(-c2cn3ccsc3n2)cc(C(C)(C)C)c1O`: the melting point was 184 to 185 °C.

Regarding `CC(C)(C)Cc1ccc(Oc2ccc(C(O)c3ccncc3)cc2)cc1` (configuration not stated), the melting point was in the range of 120 to 122 °C.

Regarding `COc1ccc(C2Sc3c(Cl)cccc3N(CCN(C)C)C(=O)C2O)cc1` (configuration not stated), the melting point lay within 143 to 144 °C.

In turn, `CC(C)(C)N1CC(c2cc(Cl)c(N)c(Cl)c2)OC1=O` (configuration not stated) gave a melting point of 97 to 103 °C.

For `O=C(c1ccc(Cl)cc1)c1ccc(SC(F)(F)F)cc1`, the melting point was in the range of 78 to 79 °C.

For the compound `CC(C)(C)OC(=O)[C@H](CCC(=O)N1CCC2(CCN(Cc3ccccc3)CC2)CC1)NS(=O)(=O)c1ccccc1`, the melting point lay in the range of 134 to 136 °C.

As to `O=C1CCCCN1S(=O)(=O)c1ccc(N2CCCCC2)cc1`, the melting point fell in the range of 140 to 145 °C.

`Cc1cccc(OCCCN2CCC(C(O)(c3ccc(F)cc3)c3ccc(F)cc3)CC2)c1` came in with a melting point of 112 to 114 °C.

`Cc1c2c(c(Cc3ccc(C(C)C)cc3)c(C)c1NC(=O)CC(C)(C)C)OCC2` returned a melting point of 201 to 202 °C.

The compound `CCOC(=O)C(C(=O)OCC)N(Cc1ccc(OC)cc1OC)C(=O)CCl` yielded a melting point of 83 to 84 °C.

Regarding `Cc1ccc(S(=O)(=O)Oc2ccccc2-c2cc3c(C(N)=O)cccc3[nH]2)cc1`, the melting point worked out at 135 °C.

For the compound `COc1ccc(C(=NOCc2ccccc2)c2cccc([N+](=O)[O-])c2)cc1`, the melting point was 100 to 101 °C.

Take `COc1ccc(-c2onc3ccc(Br)cc23)cc1`: the melting point is 137 °C.

Regarding `CC(=O)N1CCN(c2ccc(N)cc2)CC1`, the melting point was in the range of 142 to 144 °C.

Consider `O=C1NC(=O)C(Nc2ccc(CCNC[C@H](O)COc3ccc(Oc4ccccc4)cc3)cc2)S1` (some centres not stated), for which the melting point lay within 72 to 74 °C.

As to `COc1cc(Nc2c(C#N)cnc3cc4cc(OCCCN5CCOCC5)c(OC)cc4cc23)c(Cl)cc1Cl`, the melting point is 205 to 208 °C.
